Legend:
[1] = target: T1, alpha-2B adrenergic receptor (Homo sapiens, UniProt P18089); assay: FLIPR assay (intracellular calcium), alpha-2B adrenergic receptor; type: cell-based; details: for alpha-2B activity in words (agonist/antagonist): Table 2; for α-2B relative efficacy as compared to norepinephrine: agonism, value in parenthesis; for EC50: first line of cell, unit inferred, compounds tested at 0.64 nM-10,000 nM, read-out: α-2B agonism EC50
T1 construct: expressed in transfected cells
T1 sequence (P18089 1-450): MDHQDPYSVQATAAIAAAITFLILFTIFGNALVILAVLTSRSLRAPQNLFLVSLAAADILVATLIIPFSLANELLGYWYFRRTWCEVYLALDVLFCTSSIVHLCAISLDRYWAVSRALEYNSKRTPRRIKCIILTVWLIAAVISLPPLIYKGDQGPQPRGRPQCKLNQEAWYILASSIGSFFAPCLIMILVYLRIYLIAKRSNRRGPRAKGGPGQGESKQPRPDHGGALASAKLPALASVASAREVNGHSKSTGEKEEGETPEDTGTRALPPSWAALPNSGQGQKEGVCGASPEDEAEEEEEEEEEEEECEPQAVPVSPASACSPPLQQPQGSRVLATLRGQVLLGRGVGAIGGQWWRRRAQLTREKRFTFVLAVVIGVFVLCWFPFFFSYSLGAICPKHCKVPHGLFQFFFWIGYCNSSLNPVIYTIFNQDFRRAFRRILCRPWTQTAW
Description: (§1) Compounds of the invention were evaluated in a FLIPR assay in order to determine their specificity for five alpha adrenergic receptors. The FLIPR assay measures release of intracellular calcium in response to receptor activation. Cells are preloaded with a calcium sensitive dye that fluoresces in response to calcium. Receptors that activate the G protein, Gq, elicit the response. Alpha adrenergic receptors, which normally couple to Gi, trigger the increase in intracellular calcium when coexpressed with a hybrid Gq protein containing a Gi receptor recognition domain, designated Gq/i5 (Conklin et al., Nature 363:274-6 (1993)) or with the promiscuous G protein Ga16.
(§2) The assay was performed essentially as follows. HEK 293 cells stably expressing an alpha-2 receptor and either the chimeric G-protein Gqi5 or the promiscuous G protein G16 were plated in poly-D-lysine coated 384-well plates at 20,000-25,000 cells per well and grown overnight in DMEM supplemented with 10% FBS. Cells were washed twice with HBSS/HEPES Buffer (1× Hanks Buffered Salt Solution, 20 mM HEPES, pH 7.4) prior to the addition of Fluo-4-AM (4 μM Fluo-4-AM, 0.04% pluronic acid in HBSS/HEPES Buffer), a calcium-sensitive dye. Cells were loaded with dye for 60 minutes at 37° C., then washed 4 times with HBSS/HEPES Buffer. The reaction was initiated by the addition of the appropriate dilutions of compounds (final concentration between 0.64 nM-10,000 nM) and the transient calcium signal captured. The peak height of the calcium curve was determined and utilized for calculation of EC50 and efficacy using ActivityBase.

[2] = target: T2, alpha-2A adrenergic receptor (Homo sapiens, UniProt P08913); assay: FLIPR assay (intracellular calcium), alpha-2A adrenergic receptor; type: cell-based; details: for alpha-2A activity in words (agonist/antagonist): Table 2; for α-2A relative efficacy as compared to norepinephrine: agonism; for EC50: first line of cell, compounds tested at 0.64 nM-10,000 nM, read-out: α-2A agonism EC50
T2 construct: expressed in transfected cells
T2 sequence (P08913 1-465): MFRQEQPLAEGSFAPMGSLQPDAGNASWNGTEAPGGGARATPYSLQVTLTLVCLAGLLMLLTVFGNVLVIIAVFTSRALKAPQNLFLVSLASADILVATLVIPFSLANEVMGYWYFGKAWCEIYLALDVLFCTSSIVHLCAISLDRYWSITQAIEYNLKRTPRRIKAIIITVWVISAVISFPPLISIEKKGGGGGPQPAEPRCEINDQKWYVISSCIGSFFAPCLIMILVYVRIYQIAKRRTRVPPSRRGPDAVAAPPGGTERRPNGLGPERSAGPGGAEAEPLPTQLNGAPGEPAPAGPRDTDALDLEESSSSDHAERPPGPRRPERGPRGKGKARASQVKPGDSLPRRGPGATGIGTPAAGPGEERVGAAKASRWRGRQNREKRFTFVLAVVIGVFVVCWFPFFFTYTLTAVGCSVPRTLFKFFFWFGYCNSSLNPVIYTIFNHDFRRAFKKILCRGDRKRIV
Description: as §1, §2

[3] = target: T3, alpha-2C adrenergic receptor (Homo sapiens, UniProt P18825); assay: FLIPR assay (intracellular calcium), alpha-2C adrenergic receptor; type: cell-based; details: for alpha-2C activity in words (agonist/antagonist): Table 2; for α-2C relative efficacy as compared to norepinephrine: agonism, value in parenthesis; for EC50: first line of cell, unit inferred, compounds tested at 0.64 nM-10,000 nM, read-out: α-2C agonism EC50
T3 construct: expressed in transfected cells
T3 sequence (P18825 1-462): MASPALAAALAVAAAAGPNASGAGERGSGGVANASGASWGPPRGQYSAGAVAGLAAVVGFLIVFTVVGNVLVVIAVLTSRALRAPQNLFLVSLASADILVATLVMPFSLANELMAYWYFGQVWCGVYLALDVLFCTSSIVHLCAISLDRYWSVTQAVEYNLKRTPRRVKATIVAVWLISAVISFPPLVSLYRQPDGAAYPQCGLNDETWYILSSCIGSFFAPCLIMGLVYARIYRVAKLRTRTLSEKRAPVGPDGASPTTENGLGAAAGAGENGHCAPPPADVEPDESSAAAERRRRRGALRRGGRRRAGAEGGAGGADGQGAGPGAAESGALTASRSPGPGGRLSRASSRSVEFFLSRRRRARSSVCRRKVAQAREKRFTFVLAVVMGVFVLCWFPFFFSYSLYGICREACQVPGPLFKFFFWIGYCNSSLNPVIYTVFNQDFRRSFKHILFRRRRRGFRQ
Description: as §1, §2

[4] = target: T4, alpha-1A adrenergic receptor (Homo sapiens, UniProt P35348); assay: FLIPR assay (intracellular calcium), alpha-1A adrenergic receptor; type: cell-based; details: for alpha-1A activity in words (agonist/antagonist): Table 2; for α-1A relative efficacy as compared to norepinephrine: agonism; for EC50: first line of cell, HEK 293 cells, unit inferred, compounds tested at 0.64 nM-10,000 nM, read-out: α-1A agonism EC50
T4 sequence (P35348 1-466): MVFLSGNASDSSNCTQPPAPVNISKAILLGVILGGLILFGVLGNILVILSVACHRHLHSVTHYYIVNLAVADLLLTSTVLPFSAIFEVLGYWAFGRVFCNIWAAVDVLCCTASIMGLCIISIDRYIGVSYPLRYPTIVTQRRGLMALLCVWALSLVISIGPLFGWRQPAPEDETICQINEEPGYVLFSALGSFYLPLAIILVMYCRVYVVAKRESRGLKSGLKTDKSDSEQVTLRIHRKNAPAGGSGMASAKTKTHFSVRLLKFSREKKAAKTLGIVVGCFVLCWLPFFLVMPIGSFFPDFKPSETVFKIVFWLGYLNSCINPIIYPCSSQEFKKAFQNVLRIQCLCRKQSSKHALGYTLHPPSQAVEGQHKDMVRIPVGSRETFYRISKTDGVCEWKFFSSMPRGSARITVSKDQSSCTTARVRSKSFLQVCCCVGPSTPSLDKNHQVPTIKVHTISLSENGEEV
Description: as §1, §2

[5] = target: T5, alpha-1B adrenergic receptor (Homo sapiens, UniProt P35368); assay: FLIPR assay (intracellular calcium), alpha-1B adrenergic receptor; type: cell-based; details: unit inferred; for EC50: first line of cell, compounds tested at 0.64 nM-10,000 nM, read-out: α-1B agonism EC50; for IC50: second line of cell, read-out: α-1B antagonism IC50
T5 sequence (P35368 1-520): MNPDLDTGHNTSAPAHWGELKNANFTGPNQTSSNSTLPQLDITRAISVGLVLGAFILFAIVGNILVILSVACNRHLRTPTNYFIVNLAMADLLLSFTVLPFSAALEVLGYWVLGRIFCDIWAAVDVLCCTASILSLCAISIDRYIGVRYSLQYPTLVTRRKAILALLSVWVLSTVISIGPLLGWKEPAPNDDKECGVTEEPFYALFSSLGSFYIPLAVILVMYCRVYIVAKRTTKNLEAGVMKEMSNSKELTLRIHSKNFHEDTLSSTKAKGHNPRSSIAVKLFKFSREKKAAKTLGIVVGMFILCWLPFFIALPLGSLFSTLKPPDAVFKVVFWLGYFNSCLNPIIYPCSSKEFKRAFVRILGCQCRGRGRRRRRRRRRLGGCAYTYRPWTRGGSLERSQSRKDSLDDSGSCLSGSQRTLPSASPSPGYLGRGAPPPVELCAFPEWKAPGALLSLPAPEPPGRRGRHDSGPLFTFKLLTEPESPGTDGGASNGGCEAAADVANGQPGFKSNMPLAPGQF
Description: as §1, §2

[6] = FIG. 3 / FIG. 4
Description: The tactile hypersensitivity of 5-6 mice (weighing approx. 25 g) per group was scored every five minutes between 15 and 50 minutes following intraperitoneal dosing with 300 ng/kg (in a 1 mL/kg volume) sulprostone (Cayman Chemical Company, Ann Arbor, Mich.). Compound I or vehicle was administered intraperitoneally 15 minutes prior to sulprostone.
(§3) Tactile hypersensitivity was quantified by scoring the response of mice to light stroking of their flanks with a small paintbrush, which is not normally painful.
The computer analyses this movement and records total activity. Locomotor activity relative to vehicle-treated animals was expressed as a percentage; percentage sedation was calculated as 100% minus the percent locomotor activity. Statistical calculations of significance for in vivo studies were done using a two-tailed Student's t-test.

mice [7] = assay: Sulprostone-induced tactile hypersensitivity; type: in vivo; details: 0.3 mg/kg intraperitoneally 15 minutes prior to sulprostone
Description: The tactile hypersensitivity of 5-6 mice (weighing approx. 25 g) per group was scored every five minutes between 15 and 50 minutes following intraperitoneal dosing with 300 ng/kg (in a 1 mL/kg volume) sulprostone (Cayman Chemical Company, Ann Arbor, Mich.).
as §3

mice [8] = assay: Locomotor activity (sedation); type: in vivo; details: 30 minutes after dosing
mice [9] = details: as described in Gil et al., Br J Pharmacol 153: 769-74 (2008); cited from earlier work
[10] = second line of cell, value in parenthesis

SMILES	alpha-2B activity in words (agonist/antagonist) [1]	α-2B relative efficacy as compared to norepinephrine [1]	EC50 [1] [nM]	alpha-2A activity in words (agonist/antagonist) [2]	α-2A relative efficacy as compared to norepinephrine ([2]; value in parenthesis)	EC50 ([2]; unit inferred) [nM]	alpha-2C activity in words (agonist/antagonist) [3]	α-2C relative efficacy as compared to norepinephrine [3]	EC50 [3] [nM]	alpha-1A activity in words (agonist/antagonist) [4]	α-1A relative efficacy as compared to norepinephrine ([4]; value in parenthesis)	EC50 [4] [nM]	EC50 [5] [µM]	margin of safety for pain reduction vs. sedation [6]	IC50 [5] [µM]	activity in sulprostone-induced tactile hypersensitivity model (mice [9])	also measured
Cc1c(CO)cccc1[C@H](C)c1c[nH]cn1 [Compound III, (S)-(3-(1-(1H-imidazol-4-yl)ethyl)-2-methylphenyl)methanol]	alpha-2 pan agonist	(.93)	3	alpha-2 pan agonist	(.9)	72	alpha-2 pan agonist	(1)	8	some alpha-1A agonist activity	(.76)	445	> 8.3				
Cc1c(CO)cccc1C(C)c1c[nH]cn1 (racemic) [Compound I, (3-(1-(1H-imidazol-4-yl)ethyl)-2-methylphenyl)methanol]	alpha-2 pan agonist	(.94)	5.5	alpha-2 pan agonist	(.75)	53.7	alpha-2 pan agonist	(.98)	15.7	some alpha-1A agonist activity	(.69)	1630	> 10	> 10 fold	> 8.3		reduction in sulprostone induced hypersensitivity (mice [7]): back to control levels; sedation (locomotor activity) (mice [8]; 1 mg/kg intraperitoneal): minimally sedating; sedation (locomotor activity) (mice [8]; 3 mg/kg intraperitoneal): highly sedating
Cc1c(CO)cccc1[C@@H](C)c1c[nH]cn1 [Compound II, (R)-(3-(1-(1H-imidazol-4-yl)ethyl)-2-methylphenyl)methanol]	agonist	(.68)	52.8	antagonist		> 10000	agonist	(.64)	171			> 10000	> 10		> 8.3		α-2A percent antagonism [2, 10]: (96%); IC50 ([2]; second line of cell, unit inferred, read-out: α-2A antagonism IC50): 144 nM; α-1A percent antagonism [4, 10]: (39%)
NCC1(CC(=O)O)CCCCC1 [gabapentin]																active	
Cc1cccc([C@H](C)c2cnc[nH]2)c1C [dexmedetomidine]														no margin of safety			
CN(C)CCC=C1c2ccccc2CCc2ccccc21 [amitriptyline]																active	

— patent US9555021B2, “Pharmaceutical compositions comprising (3-(1-(1H-imidazol-4-yl)ethyl)-2-methylphenyl)methanol” (Allergan, Inc., priority 2009, dated 2017)
